Measured values reported in publication PMC10491774 (Cell Death & Disease, 2023).

Target: 6-phosphofructo-2-kinase/fructose-2,6-bisphosphatase 3 (PFKFB3) (Homo sapiens, UniProt Q16875)
Assay: ADP-Glo kinase assay with purified recombinant human PFKFB3; partial inhibition, only by the Ca2+-free form; counter assay done
Type: biochemical

Sequence of 6-phosphofructo-2-kinase/fructose-2,6-bisphosphatase 3 (PFKFB3) (Q16875 whole entry): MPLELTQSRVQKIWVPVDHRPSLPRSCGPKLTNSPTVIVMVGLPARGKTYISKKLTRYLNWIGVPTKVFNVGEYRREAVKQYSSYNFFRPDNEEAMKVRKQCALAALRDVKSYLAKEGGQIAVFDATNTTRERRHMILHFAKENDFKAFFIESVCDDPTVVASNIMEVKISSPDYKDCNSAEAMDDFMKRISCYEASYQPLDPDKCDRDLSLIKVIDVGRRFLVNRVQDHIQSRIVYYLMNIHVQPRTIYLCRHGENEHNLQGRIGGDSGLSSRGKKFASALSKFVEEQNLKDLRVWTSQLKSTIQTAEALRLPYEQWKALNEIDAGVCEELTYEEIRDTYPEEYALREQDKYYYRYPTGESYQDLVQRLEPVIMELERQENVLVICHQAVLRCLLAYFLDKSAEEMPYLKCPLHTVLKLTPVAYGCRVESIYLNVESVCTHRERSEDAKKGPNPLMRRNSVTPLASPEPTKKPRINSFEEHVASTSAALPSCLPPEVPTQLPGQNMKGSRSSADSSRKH

O=C(O)CN(CC(=O)O)c1ccccc1OCCOc1ccccc1N(CC(=O)O)CC(=O)O [BAPTA, 1,2-Bis-(o-Aminophenoxy)-ethane-N,N,N’,N’-tetraacetic acid]
IC50: 110 µM
